Experimental data as given in ChEMBL document CHEMBL1201862, “PubChem BioAssay data set” (2004).
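48-hour exposure; five concentrations; linearly interpolated endpoints. Here, GI50 denotes the concentration required for 50% inhibition of growth.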 Activity calls are given as the source filed them. Rule as the data show it: active = GI50 up to about 1.1 µM and inactive = higher.

What was measured:
Assay in all cases: NCI-60 cell line screen, 48 h
COLO 205 = system: COLO 205
EKVX = system: EKVX
HCC 2998 = system: HCC 2998
HCT-116 = system: HCT-116
K562 = system: K562
KM12 = system: KM12
MCF7 = system: MCF7
MDA-N = system: MDA-N
MOLT-4 = system: MOLT-4
Malme-3M = system: Malme-3M
NCI-H460 = system: NCI-H460
RPMI-8226 = system: RPMI-8226
SF-268 = system: SF-268
SF-295 = system: SF-295
SK-MEL-28 = system: SK-MEL-28
SK-MEL-2 = system: SK-MEL-2
UACC-62 = system: UACC-62
UO-31 = system: UO-31
PC-3 = system: PC-3

Measured: GI50

NS(=O)(=O)c1nnc(NS(=O)(=O)c2ccc(Cl)cc2)s1
inactive: COLO 205 > 100 µM | EKVX > 100 µM | HCC 2998 > 100 µM | HCT-116 > 100 µM | K562 > 100 µM | KM12 > 100 µM | MCF7 > 100 µM | MDA-N > 100 µM | MOLT-4 > 100 µM | Malme-3M > 100 µM | NCI-H460 > 100 µM | RPMI-8226 > 100 µM | SF-268 > 100 µM | SF-295 > 100 µM | SK-MEL-28 > 100 µM | SK-MEL-2 > 100 µM | UACC-62 > 100 µM | UO-31 > 100 µM

O=C(Cc1ccccc1)NNc1nc(NNC(=O)c2ccncc2)nc(Nc2cccc(Cl)c2)n1
inactive: COLO 205 > 10 µM | EKVX > 10 µM | HCC 2998 > 10 µM | K562 > 10 µM | KM12 > 10 µM | MCF7 > 10 µM | MDA-N > 10 µM | MOLT-4 > 10 µM | Malme-3M > 10 µM | NCI-H460 > 10 µM | RPMI-8226 > 10 µM | SF-268 > 10 µM | SK-MEL-28 > 10 µM | UACC-62 > 10 µM

CCn1c(-c2c(Cl)cc(O)cc2Cl)cc2c(Cl)cc(O)cc21
inactive: COLO 205 15.2 µM | EKVX 13.2 µM | HCT-116 4.26 µM | K562 3.41 µM | KM12 5.07 µM | MCF7 3.71 µM | MOLT-4 8.87 µM | Malme-3M 14 µM | NCI-H460 3.56 µM | PC-3 9.04 µM | RPMI-8226 5.81 µM | SF-268 2.88 µM | SF-295 4.05 µM | SK-MEL-28 2.3 µM | SK-MEL-2 4.02 µM | UACC-62 8.49 µM | UO-31 7.83 µM

O=C(NC(=O)c1cn(CCN2CCN(C(=O)NCCCCCCNC(=O)N3CCN(CCn4cc(C(=O)NC(=O)OCc5ccccc5)c(=O)[nH]c4=O)CC3)CC2)c(=O)[nH]c1=O)OCc1ccccc1
inactive: COLO 205 > 100 µM | EKVX > 100 µM | HCT-116 > 100 µM | K562 > 100 µM | MOLT-4 > 100 µM | Malme-3M > 100 µM | NCI-H460 > 100 µM | RPMI-8226 > 100 µM | SF-295 > 100 µM | SK-MEL-28 > 100 µM | UACC-62 > 100 µM | UO-31 > 100 µM

C[C@H](NC1=CC(=O)C(N[C@@H](C)[C@H](O)c2ccccc2)=CC1=O)[C@H](O)c1ccccc1
inactive: COLO 205 68.5 µM | EKVX > 100 µM | HCT-116 68.4 µM | K562 > 100 µM | KM12 59.3 µM | MDA-N > 100 µM | MOLT-4 37.2 µM | Malme-3M 67.6 µM | NCI-H460 63.8 µM | PC-3 43.1 µM | RPMI-8226 > 100 µM | SF-268 > 100 µM | SF-295 70.1 µM | SK-MEL-28 > 100 µM | SK-MEL-2 > 100 µM | UACC-62 87.9 µM | UO-31 64 µM

CN(C)CCCNC(=O)c1cc(NC(=O)c2cc(NC(=O)[C@H]3C[C@@H]3C(=O)Nc3cc(C(=O)Nc4cc(C(=O)NCCCN(C)C)n(C)c4)n(C)c3)cn2C)cn1C
inactive: COLO 205 > 100 µM | EKVX > 100 µM | HCC 2998 > 100 µM | HCT-116 > 100 µM | K562 > 100 µM | KM12 > 100 µM | MCF7 > 100 µM | MOLT-4 > 100 µM | Malme-3M > 100 µM | NCI-H460 > 100 µM | PC-3 > 100 µM | RPMI-8226 > 100 µM | SF-268 > 100 µM | SF-295 > 100 µM | SK-MEL-2 > 100 µM

CC(=O)Nc1ccc(C(=O)N2N=C(C)/C(=C/c3cccc([N+](=O)[O-])c3)C2=O)cc1
inactive: COLO 205 > 100 µM | EKVX > 100 µM | HCC 2998 > 100 µM | HCT-116 > 100 µM | K562 > 100 µM | KM12 > 100 µM | MOLT-4 > 100 µM | Malme-3M > 100 µM | NCI-H460 > 100 µM | RPMI-8226 > 100 µM | SF-268 > 100 µM | SF-295 > 100 µM | SK-MEL-28 > 100 µM | UO-31 > 100 µM

COc1cc2c(c(O)c1OC)C(O)C1CCC(=O)N1C2c1ccc2c(c1)OCO2 (stereo not drawn)
inactive: COLO 205 > 100 µM | EKVX > 100 µM | HCC 2998 > 100 µM | HCT-116 > 100 µM | K562 > 100 µM | KM12 > 100 µM | MCF7 > 100 µM | MOLT-4 > 100 µM | Malme-3M > 100 µM | NCI-H460 > 100 µM | PC-3 > 100 µM | SF-268 > 100 µM | SF-295 > 100 µM | SK-MEL-28 > 100 µM | UACC-62 > 100 µM | UO-31 > 100 µM

O=C(CCc1cccc(O)c1)NCCc1ccc(O)cc1
inactive: COLO 205 > 100 µM | EKVX > 100 µM | HCT-116 > 100 µM | K562 > 100 µM | KM12 > 100 µM | MCF7 > 100 µM | MDA-N > 100 µM | MOLT-4 > 100 µM | Malme-3M > 100 µM | NCI-H460 > 100 µM | PC-3 > 100 µM | SF-268 > 100 µM | SF-295 > 100 µM | SK-MEL-28 > 100 µM | SK-MEL-2 > 100 µM | UACC-62 > 100 µM | UO-31 > 100 µM

Clc1ccc(-c2cn3c(nc4ccccc43)c(/C=C/c3ccco3)n2)cc1
inactive: COLO 205 41.7 µM | HCC 2998 22.2 µM | HCT-116 41.8 µM | K562 29.8 µM | KM12 29.5 µM | MCF7 7.85 µM | MDA-N 72.8 µM | Malme-3M 70.3 µM | NCI-H460 23.5 µM | RPMI-8226 16.1 µM | SF-268 27.7 µM | SK-MEL-28 57.9 µM | SK-MEL-2 18.1 µM | UACC-62 41.8 µM | UO-31 48.2 µM

C[C@H]1C[C@H]2[C@@H]3C(C)(C)O[C@]4(O)C(=O)[C@]5(O)[C@@H](C)CC[C@H]1[C@]25C(=O)[C@]34C
inactive: COLO 205 16.7 µM | HCT-116 30.7 µM | K562 25.5 µM | KM12 35.6 µM | MCF7 41.3 µM | MDA-N 37.7 µM | MOLT-4 37.1 µM | NCI-H460 30.2 µM | PC-3 44.1 µM | RPMI-8226 18.1 µM | SF-268 45.7 µM | SF-295 30.1 µM | SK-MEL-2 31.3 µM | UACC-62 43.4 µM | UO-31 51.6 µM

COc1cc(OC)c2c(O)c(S(=O)(=O)c3ccc(C)cc3)c(=O)oc2c1
inactive: COLO 205 > 100 µM | EKVX > 100 µM | HCC 2998 > 100 µM | HCT-116 77.8 µM | K562 69.5 µM | KM12 92.5 µM | MCF7 > 100 µM | MOLT-4 > 100 µM | Malme-3M > 100 µM | NCI-H460 > 100 µM | PC-3 > 100 µM | RPMI-8226 76.7 µM | SF-268 > 100 µM | SF-295 > 100 µM | SK-MEL-28 > 100 µM | SK-MEL-2 > 100 µM | UACC-62 > 100 µM | UO-31 > 100 µM
